Experimental findings from patent publication US20250136634A1, “CAP ANALOG AND USE THEREOF” (SHANGHAI HONGENE BIOTECH CORPORATION, priority 2021, published 2025) are described below.

The subject of this assay is Thermostable T7 RNA polymerase (NEB). The settings on record: Example 3, thermostable T7 RNA polymerase IVT at 50° C. for 2 hs, LC-MS. On the procedure: The LC-MS analyses involved in determining capping efficiency in the following examples are as follows: • Equipment: Waters UPLC H-Class • Column: ACQUITY UPLC Oligonucleotide BEH C18, 2.1*150 mm • Column temperature: 75° C. • Mobile phase A: 200 mM hexafluoroisopropanol+8.15 mM triethylamine pH7.9 • Mobile phase B: methanol • Flow rate: 0.3 mL/min • Gradient:
Initial cap oligonucleotides are ^m7GpppApG, ^m7G pppA2′Ome PG (control), ^m7GBeta-D-LNApppA2′O-MOEpG, and ^m7GAlpha-L-LNApppA2′O-ethyl pG, respectively. • reacting at 50° C. for 2 hs, • adding DNase I (1U), and reacting at 37° C. for 30 mins. (5) Treatment with Antarctic Phosphatase:
For each tested initial cap oligonucleotide, the ratio of capped mRNA was assessed by analyzing liquid chromatography-mass spectrometry (LC-MS) results. In the experiment, a DNA probe complementary to the mRNA was used. Upon the hybridization of the DNA to the RNA, RNaseH specifically hydrolyzed the phosphodiester bond in the RNA to produce small fragments of RNAs with homogeneous 3′ end. The molecular weight and percentage of the small RNA fragments were determined by LC-MS, and were used to determine capping of the RNAs in the transcription reaction. Since the presence and absence of cap at 5′ end can be distinguished by the molecule weight, the capping efficiency can be determined via the molecule weight and percentage of trunked 5′ end-containing RNAs. In addition, from the calculation of the molecule weight, it can be determined that the caps added are the capping nucleotides.
As for ^m7GBeta-D-LNApppA2′O-MOEpG, the Capping efficiency was found to be 70%.

Take ^m7GAlpha-L-LNApppA2′O-ethyl pG: the Capping efficiency is on record as 63%.

^m7GpppApG [reference compound] gave a Capping efficiency of 93%.

In the case of ^m7GpppA2′Ome pG [reference compound], the Capping efficiency is on record as 95%.
